Patent US9133178B2, “Alpha-7 nicotinic receptor modulators for the treatment of pain, a psychotic disorder, cognitive impairment or alzheimer'S disease” (Proximagen Limited, priority 2010, dated 2015)
Structures can show the parent of a compound that is named as a salt.

Each molecule was assayed against T1, human α7 nAChR (Homo sapiens, UniProt P36544) (assay: cell-based calcium flux assay (FLIPR) for PAM activity at the α7 nAChR). Details: Table 1; potentiation of nicotine-evoked calcium flux, GH4C1 cells stably transfected with human α7 nAChR; read-out: a7 new sm > PXC50 MEAN.
T1 construct: expressed in transfected cells; host or cells: GH4C1 (rat pituitary cell line)
Method: The PAM activity of the compounds of the invention at the α7 nAChR may be determined using the following cell-based calcium flux assay which uses a Fluorimetric Image Plate Reader (FLIPR) (see Schroeder et al.; J. Biomolecular Screening, 1(2), p 75-80, 1996).
GH4C1 cell line stably transfected with human α7 nAChR was suspended in a 384 well plate and incubated at 30° C. for 48 h in a 5% carbon dioxide atmosphere. The growth media was removed and the cells washed three times with a solution of Hanks' balanced salt solution (HBSS), 20 mM HEPES and 2.5 mM probenecid leaving 20 μl washing solution in each well. A loading solution (200) containing HBSS, probenecid, 1-4 μM Fluo4 AM (a calcium indicator dye) and pluronic acid was added and the plate incubated for 45 min at 37° C. under an atmosphere free from carbon dioxide. The cells were washed three times leaving 30 μl in each well. The plate containing the cells and calcium indicator dye were then transferred to the FLIPR. The assay was initiated by collecting baseline datapoints at 10 second intervals followed by addition of the test compound in buffer solution (0.33% DMSO) and diluted to a final concentration of 10 μM and serial dilution of the wells, 1:2 or 1:3, gave a low concentration of <1 nM. Following a further 5-10 mins 10 μl of 50 μM nicotine was added and data collected for 2 to 3 mins. Nicotine produced a rapid, transient and reproducible calcium flux which could be potentiated with the positive allosteric modulator test compounds.

T1 sequence (P36544 23-502): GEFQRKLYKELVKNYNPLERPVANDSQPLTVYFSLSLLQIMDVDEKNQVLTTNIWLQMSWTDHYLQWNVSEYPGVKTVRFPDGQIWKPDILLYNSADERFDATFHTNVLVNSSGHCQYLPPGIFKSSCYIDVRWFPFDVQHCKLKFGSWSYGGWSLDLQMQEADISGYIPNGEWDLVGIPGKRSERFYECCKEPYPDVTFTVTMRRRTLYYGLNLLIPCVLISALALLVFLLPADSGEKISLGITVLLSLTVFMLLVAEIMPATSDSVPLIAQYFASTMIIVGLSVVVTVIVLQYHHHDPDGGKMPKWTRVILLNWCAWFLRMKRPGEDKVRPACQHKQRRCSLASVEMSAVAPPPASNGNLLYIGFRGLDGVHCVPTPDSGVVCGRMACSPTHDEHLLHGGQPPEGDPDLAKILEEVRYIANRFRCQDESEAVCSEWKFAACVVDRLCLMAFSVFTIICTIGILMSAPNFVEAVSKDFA

EC50 | SMILES
≤ 1 µM | Cc1cc(-c2cnc(N3C[C@@H](C)O[C@@H](C)C3)nc2-c2ccoc2C)ccn1 [Example 5, cis-2,6-Dimethyl-4-[4-(2-methyl-3-furanyl)-5-(2-methyl-4-pyridinyl)-2-pyrimidinyl]morpholine hydrochloride]
≤ 3.16 µM | Cc1cc(-c2cnc(N3C[C@@H](C)O[C@@H](C)C3)cc2-c2ccoc2C)ccn1 [Example 11, 6-(cis-2,6-dimethyl-4-morpholinyl)-2′-methyl-4-(2-methyl-3-furanyl)-3,4′-bipyridine hydrochloride]
≤ 3.16 µM | Cc1cc(-c2ccc(N3C[C@@H](C)O[C@@H](C)C3)nc2-c2ccoc2C)ccn1 [Example 12, 6-(cis-2,6-dimethyl-4-morpholinyl)-2′-methyl-2-(2-methyl-3-furanyl)-3,4′-bipyridine hydrochloride]
≤ 10 µM | Cc1cc(-c2cnc(N3C[C@@H](C)O[C@@H](C)C3)nc2-c2cccnc2C(F)(F)F)ccn1 [Example 16, cis-2,6-Dimethyl-4-{5-(2-methyl-4-pyridinyl)-4-[2-(trifluoromethyl)-3-pyridinyl]-2-pyrimidinyl}morpholine hydrochloride]
≤ 3.16 µM | Cc1cc(-c2cnc(N3C[C@@H](C)O[C@@H](C)C3)nc2-c2cnc(F)cc2C)ccn1 [Example 17, cis-4-[4-(6-Fluoro-4-methyl-3-pyridinyl)-5-(2-methyl-4-pyridinyl)-2-pyrimidinyl]-2,6-dimethylmorpholine hydrochloride]
≤ 10 µM | Cc1cc(-c2cnc(N3C[C@@H](C)O[C@@H](C)C3)nc2-c2cc(F)ccc2C#N)ccn1 [Example 18, cis-2-[2-(2,6-Dimethyl-4-morpholinyl)-5-(2-methyl-4-pyridinyl)-4-pyrimidinyl]-4-fluorobenzonitrile hydrochloride]
≤ 3.16 µM | Cc1cc(-c2cnc(N3C[C@@H](C)O[C@@H](C)C3)nc2-c2ccccc2C)ccn1 [Example 14, cis-2,6-Dimethyl-4-[4-(2-methylphenyl)-5-(2-methyl-4-pyridinyl)-2-pyrimidinyl]morpholine]
≤ 10 µM | Cc1occc1-c1nc(N2CCCCCC2)ncc1-c1ccccn1 [Example 7, 1-[4-(2-Methyl-3-furanyl)-5-(2-Pyridinyl)-2-pyrimidinyl]hexahydro-1H-azepine hydrochloride]
≤ 3.16 µM | Cc1occc1-c1nc(N2CCCC(C)C2)ncc1-c1ccccn1 (centres unmarked) [Example 8, 4-(2-Methyl-3-furanyl)-2-(3-methyl-1-piperidinyl)-5-(2-pyridinyl)pyrimidine hydrochloride]
≤ 3.16 µM | Cc1cnccc1-c1cnc(N2C[C@@H](C)O[C@@H](C)C2)nc1-c1ccoc1C [Example 15, cis-2,6-dimethyl-4-[4-(2-methyl-3-furanyl)-5-(3-methyl-4-pyridinyl)-2-pyrimidinyl]morpholine hydrochloride]
≤ 1 µM | Cc1cc(-c2cnc(N3CCCCC3)nc2-c2ccoc2C)ccn1 [Example 4, 4-(2-Methyl-3-furanyl)-5-(2-methyl-4-pyridinyl)-2-(1-piperidinyl)pyrimidine hydrochloride]
≤ 3.16 µM | Cc1cc(-c2ncc(N3C[C@@H](C)O[C@@H](C)C3)nc2-c2ccoc2C)ccn1 [Example 10, cis-2,6-Dimethyl-4-[6-(2-methyl-3-furanyl)-5-(2-methyl-4-pyridinyl)-2-pyrazinyl]morpholine hydrochloride]
≤ 1 µM | Cc1cc(-c2cnc(N3C[C@@H](C)O[C@@H](C)C3)nc2-c2cccc(C(F)(F)F)c2C#N)ccn1 [Example 19, cis-2-[2-(2,6-dimethyl-4-morpholinyl)-5-(2-methyl-4-pyridinyl)-4-pyrimidinyl]-6-(trifluoromethyl)benzonitrile hydrochloride]
≤ 1 µM | Cc1cc(-c2cnc(N3CCCC(C)C3)nc2-c2ccoc2C)ccn1 (centres unmarked) [Example 3, 4-(2-Methyl-3-furanyl)-2-(3-methyl-1-piperidinyl)-5-(2-methyl-4-pyridinyl)pyrimidine hydrochloride]
≤ 10 µM | Cc1occc1-c1nc(N2CCCC(C)C2)ncc1-c1cccnc1 (centres unmarked) [Example 2, 4-(2-Methyl-3-furanyl)-2-(3-methyl-1-piperidinyl)-5-(3-pyridinyl)pyrimidine hydrochloride]
≤ 1 µM | Cc1cc(-c2cnc(N3C[C@H](C)O[C@@H](C)C3)nc2-c2ccoc2C)ccn1 (relative stereo) [Example 6, trans-2,6-Dimethyl-4-[4-(2-methyl-3-furanyl)-5-(2-methyl-4-pyridinyl)-2-pyrimidinyl]morpholine hydrochloride]
≤ 1 µM | Cc1cc(-c2ccc(N3C[C@@H](C)O[C@@H](C)C3)cc2-c2ccoc2C)ccn1 [Example 13, cis-2,6-Dimethyl-4-[3-(2-methyl-3-furanyl)-4-(2-methyl-4-pyridinyl)phenyl]morpholine]
≤ 1 µM | Cc1cc(-c2cnc(N3C[C@@H](C)O[C@@H](C)C3)nc2CC(C)C)ccn1 [Example 9, cis-2,6-Dimethyl-4-[4-(2-methylpropyl)-5-(2-methyl-4-pyridinyl)-2-pyrimidinyl]morpholine hydrochloride]
≤ 1 µM | Cc1occc1-c1nc(N2CCCC(C)C2)ncc1-c1ccncc1 (centres unmarked) [Example 1, 4-(2-Methyl-3-furanyl)-2-(3-methyl-1-piperidinyl)-5-(4-pyridinyl)pyrimidine hydrochloride]

Same assay, conditions: Table 2, commercially available compounds; potentiation of nicotine-evoked calcium flux, GH4C1 cells stably transfected with human α7 nAChR; read-out: a7 new sm > PXC50 MEAN

SMILES | EC50
Cc1occc1-c1nc(N2CCCCCC2)ncc1-c1ccncc1 [ATL 13269690 or ADM 13269690] | ≤ 3.16 µM
Cc1occc1-c1nc(N2CCCC(C)C2)ncc1-c1ccncc1 (centres unmarked) [ADM 13269678] | ≤ 1 µM
Cc1occc1-c1nc(N2CCN(C(=O)c3ccco3)CC2)ncc1-c1ccccn1 [ADM 13270126] | ≤ 10 µM
Cc1occc1-c1nc(N2CCSCC2)ncc1-c1ccncc1 [ADM 13269686] | ≤ 3.16 µM
COc1cc(-c2cnc(N3CCCCC3)nc2-c2ccco2)nc(OC)n1 [ATL 14631888] | ≤ 10 µM
Cc1noc(C)c1-c1nc(N2CCCC(C)C2)ncc1-c1ccncc1 (centres unmarked) [AOP 14465526] | ≤ 3.16 µM
Cc1ccc(-c2nc(N3CCCCC3)ncc2-c2cc(C)no2)cn1 [ADM 14220371] | ≤ 1 µM
COc1cc(-c2cnc(N3CCCC3)nc2-c2ccco2)nc(OC)n1 [ATL 14631887] | ≤ 10 µM
c1cc(-c2cnc(N3CCCCC3)nc2-c2ccoc2)ccn1 [ADM 14465561] | ≤ 10 µM
Cc1occc1-c1nc(N2CCCC2)ncc1-c1ccncc1 [ADM 13269675] | ≤ 3.16 µM
Cc1cc(-c2cnc(N3CCSCC3)nc2-c2ccc(C)s2)on1 [ADM 14408364] | ≤ 3.16 µM
c1ccc(-c2nnc(N3CCCC3)nc2-c2ccccc2)cc1 [AO-476/43380313] | ≤ 1 µM
c1cc(-c2cnc(N3CCSCC3)nc2-c2ccoc2)ccn1 [ADM 14465558] | ≤ 1 µM
Cc1noc(C)c1-c1nc(N2CCSCC2)ncc1-c1ccncc1 [AOP 14465529] | ≤ 10 µM
Cc1cc(-c2cnc(N3CCSCC3)nc2-c2ccc(C)o2)on1 [AEM 14465590] | ≤ 3.16 µM
Cc1ccc(-c2nc(N3CCCC(C)C3)ncc2-c2ccncc2)cn1 (centres unmarked) [AOP 13274016] | ≤ 1 µM
Cc1occc1-c1nc(N2CC(C)OC(C)C2)ncc1-c1ccncc1 (centres unmarked) [ADM 13269721] | ≤ 1 µM
Cc1ccc(-c2nc(N3CCCC(C)C3)ncc2-c2cc(C)no2)cn1 (centres unmarked) [ADM 14220368] | ≤ 1 µM
Cc1noc(C)c1-c1nc(N2CCCCCC2)ncc1-c1ccncc1 [AOP 14465544] | ≤ 3.16 µM
Cc1ccc(-c2nc(N3CCCC3)ncc2-c2cc(C)no2)cn1 [ADM 14220366] | ≤ 10 µM
Cc1ccc(-c2nc(N3CCCCC3)ncc2-c2ccncc2)cn1 [AOP 13274014] | ≤ 3.16 µM
Cc1occc1-c1nc(N2CCCCC2)ncc1-c1ccncc1 [ADM 13269676] | ≤ 1 µM

More lines, now with the values ahead:

EC50 | SMILES
≤ 10 µM | CC1CCCN(c2ncc(-c3ccncc3)c(-c3ccco3)n2)C1 (centres unmarked) [LMK 13268083]
≤ 3.16 µM | c1coc(-c2cnc(N3CCSCC3)nc2-c2ccco2)c1 [LMK 13280444]

Same assay, conditions: further batch (as the HCl salt); read-out: pEC50 (converted)

EC50 | SMILES
> 10 µM | Cc1cc(-c2cnc(N3C[C@@H](C)O[C@@H](C)C3)nc2-c2ccccc2C#N)ccn1

Same assay, conditions: further batch (as the HCl salt); relative to nicotine control

maximum potentiation of the response area relative to nicotine control | SMILES
approximately 1200% | Cc1cc(-c2cnc(N3C[C@@H](C)O[C@@H](C)C3)nc2-c2ccccc2C#N)ccn1

Same assay, conditions: potentiation of nicotine-evoked calcium flux; read-out: pEC50 (converted)

EC50 | SMILES
~2.51 µM | Cc1cc(-c2cnc(N3C[C@@H](C)O[C@@H](C)C3)nc2-c2ccccc2C#N)ccn1

Same assay, conditions: relative to nicotine control

maximum potentiation of the response area relative to nicotine control | SMILES
approximately 1200% | Cc1cc(-c2cnc(N3C[C@@H](C)O[C@@H](C)C3)nc2-c2ccccc2C#N)ccn1
